This note sets out measurements from ChEMBL document CHEMBL1201862, “PubChem BioAssay data set” (2004).

Some test systems named below: Malme-3M; SF-295; HOP-62; SK-OV-3; A498; M14; HCT-15; OVCAR-8; NCI-H23; SK-MEL-28; SK-MEL-2; IGROV-1; NCI-H460; SK-MEL-5; EKVX; HCT-116; Hs-578T; SNB-19.
Experiment in all cases: DTP human tumour cell line panel, 48 h

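Results reflect a 48-hour exposure of cells in 96-well plates to compound at five concentrations. Abbreviation: GI50, concentration required for 50% inhibition of growth.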 Active and inactive are the calls of the source. No stated cut-off is given here; in the data, active = GI50 up to about 1.1 µM and inactive = higher. A value given as a limit tells only on which side of the number the result lay.

For `CCC(c1c[nH]c2ccc(Br)cc12)c1c[nH]c2ccc(Br)cc12`, the GI50 in the experiment on Malme-3M was 10.6 µM (inactive); with SF-295 it was 5.92 µM (inactive); in the experiment with HOP-62 it was 10.5 µM (inactive); with SK-OV-3, 11.9 µM (inactive); in the experiment with A498, 3.79 µM (inactive); in the experiment with M14 it was 3.22 µM (inactive). The 50% growth inhibitory concentration (GI50) is 4.01 µM in the experiment on HCT-15; 4.53 µM (inactive) with OVCAR-8; 2.96 µM (inactive) in the experiment on NCI-H23; 11.5 µM (inactive) in the experiment on SK-MEL-28; 10.6 µM (inactive) with SK-MEL-2; 4.41 µM (inactive) in the experiment on IGROV-1. Also, the GI50 in the experiment on NCI-H460 was 2.63 µM (inactive); in the experiment with SK-MEL-5, 8.11 µM (inactive); in the experiment on EKVX, 5.14 µM (inactive); in the experiment with HCT-116 it was 3.94 µM (inactive); in the experiment with Hs-578T it was 5.82 µM (inactive); in the experiment on SNB-19, 8.57 µM (inactive).
Regarding `Cc1ccc(SC[C@@]2(C(F)F)NC(=O)NC2=O)cc1`, the GI50 in the experiment on Malme-3M, with SF-295, in the experiment with HOP-62, with SK-OV-3, with A498 and with M14 was > 100 µM (inactive) throughout. The GI50 was above 100 µM in the experiment with HCT-15; > 100 µM (inactive) in the experiment with OVCAR-8; > 100 µM (inactive) in the experiment on NCI-H23; > 100 µM (inactive) with SK-MEL-28; > 100 µM (inactive) in the experiment on SK-MEL-2; > 100 µM (inactive) in the experiment with IGROV-1. In addition, the GI50 in the experiment with NCI-H460, in the experiment with SK-MEL-5, with EKVX, in the experiment with HCT-116, with Hs-578T and in the experiment with SNB-19 was > 100 µM (inactive) each time.
For the molecule `CN(CCC#N)c1ccc(/C=C2\SC(=S)NC2=O)cc1`, the GI50 with Malme-3M is > 100 µM (inactive); with SF-295, 35.9 µM (inactive); in the experiment on HOP-62, 41.3 µM (inactive); with SK-OV-3 it was 71.9 µM (inactive); in the experiment on A498, 30.1 µM (inactive); in the experiment with M14, 67.6 µM (inactive). The GI50 was 48.2 µM in the experiment on HCT-15; > 100 µM (inactive) in the experiment with OVCAR-8; 39.5 µM (inactive) in the experiment on NCI-H23; 40.1 µM (inactive) in the experiment with SK-MEL-28; 35 µM (inactive) in the experiment with SK-MEL-2; > 100 µM (inactive) with IGROV-1. Moreover, the GI50 in the experiment on NCI-H460 is 25.9 µM (inactive); in the experiment on SK-MEL-5, 52 µM (inactive); in the experiment on EKVX, > 100 µM (inactive); in the experiment with HCT-116, 29.2 µM (inactive); with Hs-578T, 33.3 µM (inactive); in the experiment on SNB-19, 71 µM (inactive).
As for `CC(O)C1(CNc2cc(Cl)nc(N)n2)CCCCC1` (configuration not stated), the GI50 is > 100 µM (inactive) in the experiment with Malme-3M; > 100 µM (inactive) in the experiment with SF-295; > 100 µM (inactive) in the experiment with HOP-62; > 100 µM (inactive) in the experiment with SK-OV-3; 39.3 µM (inactive) with A498; > 100 µM (inactive) with M14. The GI50 is above 100 µM with HCT-15; > 100 µM (inactive) in the experiment on OVCAR-8; 83.6 µM (inactive) in the experiment on NCI-H23; > 100 µM (inactive) in the experiment with SK-MEL-28; > 100 µM (inactive) with SK-MEL-2; > 100 µM (inactive) with IGROV-1. Also, the GI50 with NCI-H460 is > 100 µM (inactive); in the experiment with SK-MEL-5 it was 45.6 µM (inactive); with EKVX it was 58.1 µM (inactive); in the experiment on HCT-116 it was > 100 µM (inactive); in the experiment with Hs-578T, > 100 µM (inactive); in the experiment with SNB-19, > 100 µM (inactive).
